Publication PMC4929936, “Isoform-specific modulation of the chemical sensitivity of conserved TRPA1 channel in the major honeybee ectoparasitic mite, Tropilaelaps mercedesae” (Open Biology, 2016)

How the values were obtained:
TmTRPA1a = biological target: T1, TmTRPA1a (Tropilaelaps mercedesae, UniProt A0A193PK31); assay: Fura-2 calcium imaging, HEK293; assay type: cell-based; conditions: activator, pH 7.4, 2 mM CaCl2
T1 construct: gene TRPA1; full-length, untagged, transiently expressed in HEK293 cells; expected 134 kD; 15 ankyrin repeats
T1 sequence (A0A193PK31 1-1172): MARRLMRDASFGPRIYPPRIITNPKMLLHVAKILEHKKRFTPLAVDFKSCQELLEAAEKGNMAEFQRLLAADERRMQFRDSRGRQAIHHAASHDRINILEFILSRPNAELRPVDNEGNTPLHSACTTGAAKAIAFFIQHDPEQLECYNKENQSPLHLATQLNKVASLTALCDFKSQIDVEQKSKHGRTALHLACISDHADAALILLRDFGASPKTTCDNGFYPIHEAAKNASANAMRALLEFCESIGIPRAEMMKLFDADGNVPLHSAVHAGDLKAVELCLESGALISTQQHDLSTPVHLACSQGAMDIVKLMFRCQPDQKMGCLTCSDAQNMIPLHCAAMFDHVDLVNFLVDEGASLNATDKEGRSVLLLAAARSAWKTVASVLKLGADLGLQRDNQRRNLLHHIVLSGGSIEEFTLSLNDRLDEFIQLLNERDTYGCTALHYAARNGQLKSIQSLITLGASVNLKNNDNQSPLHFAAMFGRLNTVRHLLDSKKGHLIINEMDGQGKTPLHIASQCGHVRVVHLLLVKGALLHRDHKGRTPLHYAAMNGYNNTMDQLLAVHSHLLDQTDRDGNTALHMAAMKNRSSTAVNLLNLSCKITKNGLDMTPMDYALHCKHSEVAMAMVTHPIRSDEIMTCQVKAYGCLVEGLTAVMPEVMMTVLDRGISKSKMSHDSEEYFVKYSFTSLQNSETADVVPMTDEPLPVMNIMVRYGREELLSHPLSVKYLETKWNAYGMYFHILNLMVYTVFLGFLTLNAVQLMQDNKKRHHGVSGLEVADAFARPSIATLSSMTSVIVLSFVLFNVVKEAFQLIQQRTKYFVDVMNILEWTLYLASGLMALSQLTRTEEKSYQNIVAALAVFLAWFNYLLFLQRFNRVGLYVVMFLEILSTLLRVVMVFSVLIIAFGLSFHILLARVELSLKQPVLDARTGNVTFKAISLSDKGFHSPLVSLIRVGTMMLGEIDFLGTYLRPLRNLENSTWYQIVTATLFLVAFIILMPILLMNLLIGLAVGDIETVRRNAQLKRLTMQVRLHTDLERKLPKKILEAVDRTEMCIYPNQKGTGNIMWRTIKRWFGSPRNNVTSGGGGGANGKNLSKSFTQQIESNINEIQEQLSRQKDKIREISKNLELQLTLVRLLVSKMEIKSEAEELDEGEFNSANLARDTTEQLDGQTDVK
Excerpt: Fura-2 calcium imaging, HEK293 on TmTRPA1a | only six of the compounds activated TmTRPA1a.

TmTRPA1b = biological target: T2, TmTRPA1b (Tropilaelaps mercedesae, UniProt A0A193PK79); assay: Fura-2 calcium imaging, HEK293; assay type: cell-based; conditions: pH 7.4, 2 mM CaCl2
T2 construct: gene TRPA1; full-length, untagged, transiently expressed in HEK293 cells; expected 143 kD; 15 ankyrin repeats
T2 sequence (A0A193PK79 1-1258): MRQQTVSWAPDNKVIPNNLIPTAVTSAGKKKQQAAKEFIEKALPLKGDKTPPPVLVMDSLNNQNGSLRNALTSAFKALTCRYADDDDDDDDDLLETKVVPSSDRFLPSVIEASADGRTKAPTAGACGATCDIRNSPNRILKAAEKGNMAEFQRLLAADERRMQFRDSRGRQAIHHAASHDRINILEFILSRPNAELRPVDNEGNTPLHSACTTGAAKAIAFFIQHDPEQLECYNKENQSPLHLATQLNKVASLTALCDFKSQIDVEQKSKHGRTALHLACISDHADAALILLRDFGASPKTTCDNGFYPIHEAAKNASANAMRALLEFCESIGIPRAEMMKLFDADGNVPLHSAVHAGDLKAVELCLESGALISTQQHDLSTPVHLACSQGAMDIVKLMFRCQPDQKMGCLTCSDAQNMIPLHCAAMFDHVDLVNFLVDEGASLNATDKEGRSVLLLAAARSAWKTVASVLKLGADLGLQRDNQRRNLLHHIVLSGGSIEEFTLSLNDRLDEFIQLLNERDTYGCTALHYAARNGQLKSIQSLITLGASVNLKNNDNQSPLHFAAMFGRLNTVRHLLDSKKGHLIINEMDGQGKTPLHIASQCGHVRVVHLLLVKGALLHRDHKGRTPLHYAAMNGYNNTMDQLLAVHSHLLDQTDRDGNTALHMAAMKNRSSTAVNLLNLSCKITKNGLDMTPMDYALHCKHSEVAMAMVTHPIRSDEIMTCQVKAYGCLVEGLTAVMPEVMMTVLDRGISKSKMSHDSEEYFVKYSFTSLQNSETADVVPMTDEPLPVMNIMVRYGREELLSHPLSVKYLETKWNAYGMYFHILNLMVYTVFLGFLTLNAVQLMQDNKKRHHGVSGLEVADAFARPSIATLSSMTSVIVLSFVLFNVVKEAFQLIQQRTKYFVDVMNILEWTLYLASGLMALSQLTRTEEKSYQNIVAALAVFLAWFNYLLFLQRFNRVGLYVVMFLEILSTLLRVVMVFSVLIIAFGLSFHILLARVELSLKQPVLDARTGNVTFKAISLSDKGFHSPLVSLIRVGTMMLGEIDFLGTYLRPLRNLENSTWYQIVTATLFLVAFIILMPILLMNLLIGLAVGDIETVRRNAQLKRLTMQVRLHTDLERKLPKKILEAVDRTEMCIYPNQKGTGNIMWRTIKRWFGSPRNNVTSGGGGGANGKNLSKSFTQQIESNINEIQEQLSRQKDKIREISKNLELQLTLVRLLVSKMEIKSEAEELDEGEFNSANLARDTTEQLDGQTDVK

SMILES: CC1=CCC(O)(C(C)C)CC1 (centres unmarked) [terpinen-4-ol]
- Fura-2 calcium imaging, HEK293 (TmTRPA1a; 1 mM): These are nerol, 2-undecanone, carvacrol, geranylacetone, eugenol and terpinen-4-ol

SMILES: CC12CCC(CC1)C(C)(C)O2 [1,8-cineole]
- Fura-2 calcium imaging, HEK293 (TmTRPA1b; 1 mM, activator): We observed robust activation of TmTRPA1b by eight representative plant-derived compounds

SMILES: CC(=O)CC/C=C(\C)CCC=C(C)C [geranylacetone]
- Fura-2 calcium imaging, HEK293 (TmTRPA1a; 0.5 mM): These are nerol, 2-undecanone, carvacrol, geranylacetone, eugenol and terpinen-4-ol
- Fura-2 calcium imaging, HEK293 (TmTRPA1b; 0.5 mM, activator): We observed robust activation of TmTRPA1b by eight representative plant-derived compounds

SMILES: CCCCCCCCCC(C)=O [2-undecanone]
- Fura-2 calcium imaging, HEK293 (TmTRPA1a; 1 mM): only six of the compounds activated TmTRPA1a. These are nerol, 2-undecanone, carvacrol
- Fura-2 calcium imaging, HEK293 (TmTRPA1b; 1 mM, activator): We observed robust activation of TmTRPA1b by eight representative plant-derived compounds

SMILES: C=CCSSCC=C [diallyl disulfide]
- Fura-2 calcium imaging, HEK293 (TmTRPA1b; 1 mM, electrophilic activator): allyl isothiocyanate (AITC), cinnamaldehyde (CA) and diallyl disulfide also activate TmTRPA1b

SMILES: CC/C=C\C[C@H]1C(=O)CC[C@@H]1CC(=O)OC [methyl jasmonate]
- Fura-2 calcium imaging, HEK293 (TmTRPA1b; 1 mM, activator): We observed robust activation of TmTRPA1b by eight representative plant-derived compounds

SMILES: CC(C)=CCCC(C)CCO (stereo not drawn) [β-citronellol]
- Fura-2 calcium imaging, HEK293 (TmTRPA1b; 1 mM, activator): We observed robust activation of TmTRPA1b by eight representative plant-derived compounds

SMILES: C=CCc1ccc(O)c(OC)c1 [eugenol]
- Fura-2 calcium imaging, HEK293 (TmTRPA1a; 1 mM): These are nerol, 2-undecanone, carvacrol, geranylacetone, eugenol and terpinen-4-ol

SMILES: Cc1ccc(C(C)C)cc1O [carvacrol]
- Fura-2 calcium imaging, HEK293 (TmTRPA1a; 0.5 mM): only six of the compounds activated TmTRPA1a. These are nerol, 2-undecanone, carvacrol
- Fura-2 calcium imaging, HEK293 (TmTRPA1b; 0.5 mM, activator): We observed robust activation of TmTRPA1b by eight representative plant-derived compounds

SMILES: C=CCN=C=S [allyl isothiocyanate]
- Fura-2 calcium imaging, HEK293 (TmTRPA1b; 1 mM, electrophilic activator): allyl isothiocyanate (AITC), cinnamaldehyde (CA) and diallyl disulfide also activate TmTRPA1b

SMILES: CC(C)=CCC/C(C)=C\CO [nerol]
- Fura-2 calcium imaging, HEK293 (TmTRPA1a; 1 mM (Figure 5 legend; Methods state 0.5 mM)): only six of the compounds activated TmTRPA1a. These are nerol, 2-undecanone, carvacrol
- Fura-2 calcium imaging, HEK293 (TmTRPA1b; 0.5 mM, activator): We observed robust activation of TmTRPA1b by eight representative plant-derived compounds

SMILES: O=CC=Cc1ccccc1 [cinnamaldehyde]
- Fura-2 calcium imaging, HEK293 (TmTRPA1b; 1 mM, electrophilic activator): allyl isothiocyanate (AITC), cinnamaldehyde (CA) and diallyl disulfide also activate TmTRPA1b

SMILES: CC1=CCC(C(C)(C)O)CC1 (stereo not drawn) [α-terpineol]
- Fura-2 calcium imaging, HEK293 (TmTRPA1b; 1 mM, activator): We observed robust activation of TmTRPA1b by eight representative plant-derived compounds
